According to paper PMC3929664, “A Panel of Diverse Assays to Interrogate the Interaction between Glucokinase and Glucokinase Regulatory Protein, Two Vital Proteins in Human Disease” (PLoS ONE, 2014):
Structures can show the parent of a compound that is named as a salt.

Tests used:
[1] = system: europium-conjugated rabbit anti-mouse IgG antibody / mouse anti-FLAG XL 665 antibody; experiment: IgG HTRF counter-assay; settings: no GCK or GKRP, mean ± SD
Experimental: (§1) S6P, F1P, and glucose were dissolved in water; GKAs were dissolved in DMSO.
(TIF) Click here for additional data file.

[2] = molecular target: T1, GCK enzymatic reaction inhibited by GKRP (recombinant human GCK and GKRP) (Homo sapiens, UniProt P35557+Q14397); experiment: Diaphorase-coupled kinetic assay (G6PDH/diaphorase dual-coupled); assay type: biochemical; settings: 10 nM GCK, 10 nM GKRP; for LOPAC1280 screen outcome: 1.5 µM S6P
T1 construct: made in house
T1 sequence (P35557 1-465): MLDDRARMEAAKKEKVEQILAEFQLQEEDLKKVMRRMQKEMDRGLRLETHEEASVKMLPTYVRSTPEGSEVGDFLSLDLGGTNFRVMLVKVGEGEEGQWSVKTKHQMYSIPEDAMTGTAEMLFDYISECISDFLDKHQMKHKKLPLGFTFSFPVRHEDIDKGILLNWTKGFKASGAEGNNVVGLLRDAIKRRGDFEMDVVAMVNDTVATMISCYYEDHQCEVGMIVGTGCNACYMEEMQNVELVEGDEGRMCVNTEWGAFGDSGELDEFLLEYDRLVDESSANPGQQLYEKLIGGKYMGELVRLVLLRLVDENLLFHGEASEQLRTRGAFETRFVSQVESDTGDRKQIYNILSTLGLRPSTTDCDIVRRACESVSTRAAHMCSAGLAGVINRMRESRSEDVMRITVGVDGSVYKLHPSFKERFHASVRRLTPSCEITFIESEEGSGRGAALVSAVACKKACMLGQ
T1 sequence (Q14397 1-625): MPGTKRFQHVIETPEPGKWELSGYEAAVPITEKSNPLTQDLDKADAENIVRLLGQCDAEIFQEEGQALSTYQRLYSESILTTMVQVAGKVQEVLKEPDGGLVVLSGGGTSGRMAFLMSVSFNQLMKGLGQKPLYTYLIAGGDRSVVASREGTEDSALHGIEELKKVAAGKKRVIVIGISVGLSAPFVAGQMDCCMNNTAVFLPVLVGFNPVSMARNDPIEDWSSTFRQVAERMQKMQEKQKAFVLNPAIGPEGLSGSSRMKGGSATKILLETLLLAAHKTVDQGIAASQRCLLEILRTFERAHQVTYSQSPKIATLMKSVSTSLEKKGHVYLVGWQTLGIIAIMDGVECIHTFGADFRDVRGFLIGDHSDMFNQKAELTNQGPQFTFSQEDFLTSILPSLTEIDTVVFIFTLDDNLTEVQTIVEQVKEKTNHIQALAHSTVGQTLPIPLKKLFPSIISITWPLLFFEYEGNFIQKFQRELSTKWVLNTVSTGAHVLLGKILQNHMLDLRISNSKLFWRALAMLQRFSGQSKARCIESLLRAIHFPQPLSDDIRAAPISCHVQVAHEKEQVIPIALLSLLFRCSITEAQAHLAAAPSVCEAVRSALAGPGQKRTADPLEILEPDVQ
Experimental: The glucose 6-phosphate dehydrogenase (G6PDH)-coupled kinetic assay described previously was adapted for high-throughput screening by dispensing 2 µl diaphorase-coupled substrate assay buffer (pH 7.1) to give final reaction conditions of 25 mM HEPES, 25 mM KCl, 2 mM MgCl2, 1.4 mM 2-mercaptoethanol, 0.025% BSA, 0.01% Tween-20, 0.15 mM NADP^+, 5 mM glucose, 0.4 mM ATP, 4 U/ml G6PDH, and 0.1 mM resazurin (all Sigma-Aldrich, except ATP which was from Promega) into black 1536-well medium binding plates (Greiner Bio-One) using a BioRAPTR. The reaction was then initiated by addition of 2 µl of diaphorase-coupled enzyme assay buffer containing indicated concentrations of GST-GCK, FLAG-GKRP, and diaphorase (Sigma-Aldrich; final concentration 0.1 mg/ml). Reaction progress was followed by quantitation of the fluorescent product resorufin generated from resazurin with excitation at 525 nm and emission at 590 nm using a ViewLux Microplate Imager. Plates were read every minute for 30 minutes. […] For the LOPAC^1280 library screen, column 1 was all components with DMSO (maximum signal) and column 3 was no GCK with DMSO (minimum signal). These two control columns were used for data normalization. The final HTS protocol is in Table S2, and the data have been deposited in PubChem (AID 743205).
as §1
The G6PDH-coupled kinetic assay system described in [24] was utilized as a basis for developing a high-throughput screening assay to detect G6P generation. Because NADPH (excitation 340 nm, emission 450 nm) has spectral overlap with many fluorescent small molecule compounds, NADPH generation by G6PDH was coupled to NADPH-dependent reduction of resazurin to the fluorescent resorufin (excitation 525 nm, emission 590 nm) catalyzed by diaphorase ( Figure 1B ). Initial assay validation was carried out over a range (0–20 nM) of GCK and GKRP concentrations ( Figure 4A ). Additionally, seven different control mixes of NADP^+ and NADPH were tested in duplicate to generate a standard curve. The total NADP^+/NADPH concentration was 0.15 mM for all controls, with 0, 5, 10, 30, 50, 70, or 100% NADPH. This allowed estimation of the amount of NADP^+ that had been converted by the GCK reaction throughout the time-course ( Figure 4A , dashed lines). The assay is sensitive to very low levels of conversion.
The reaction rate for both 10 nM GCK alone and for 10 nM GCK with 10 nM GKRP was linear for the entire 30-minute time-course. The combination of linearity and the relatively low percent conversion of NADP^+ led us to select t = 10 minutes as providing an appropriate signal window for all future analyses. […] The IC80 value for S6P was calculated as 1.5 µM. Accordingly, this S6P concentration was utilized for all remaining diaphorase-coupled experiments.

GCK and GKRP = system: GCK and GKRP; design: method as in PMID 14627435; settings: enhancement of the interaction of GCK and GKRP; read-out: EC50, previously reported; cited from earlier work

O=C(O)C1=CC(=C(c2ccc(O)c(C(=O)O)c2)c2ccc(O)c(C(=O)O)c2)C=CC1=O [ATA, aurintricarboxylic acid]
IC50 [1]: 90 ± 30 nM | LOPAC1280 screen outcome [2]: inhibitors of the GCK-GKRP interaction

O=C(COP(=O)(O)O)[C@@H](O)[C@H](O)[C@H](O)CO [F1P, fructose 1-phosphate]
EC50 ([2]; t = 10 minutes, mean ± SD): 4000 ± 500 nM

O=P(O)(O)OC[C@@H](O)[C@@H](O)[C@H](O)[C@@H](O)CO [S6P, sorbitol 6-phosphate]
IC80 [2]: 1500 nM | IC50 ([2]; t = 10 minutes, mean ± SD): 400 ± 40 nM | EC50 (GCK and GKRP): ~500 nM

Cc1ccc(C(=O)Nc2ccc(S(=O)(=O)O)c3cc(S(=O)(=O)O)cc(S(=O)(=O)O)c23)cc1NC(=O)c1cccc(NC(=O)Nc2cccc(C(=O)Nc3cc(C(=O)Nc4ccc(S(=O)(=O)O)c5cc(S(=O)(=O)O)cc(S(=O)(=O)O)c45)ccc3C)c2)c1 [suramin sodium salt]
IC50 [1]: 250 ± 70 nM | LOPAC1280 screen outcome [2]: inhibitors of the GCK-GKRP interaction
